Data as given in patent US7989446B2, “4-amino 5-cyanopyrimidine derivatives” (Otsuka Pharmaceutical Co., Ltd., priority 2004, dated 2011).
Structures can show the parent of a compound that is named as a salt.

Assays:
[1] = molecular target: T1, adenosine A2a receptor (Human) (Homo sapiens, UniProt P29274); experiment: c-AMP generating action in cell expressing adenosine A2a receptor; format: cell-based; settings: HEK293 cell expressing human A2a; 100% = c-AMP caused by 1 μM CGS-21680; read-out: A2a Agonistic Action (EC50)
T1 construct: host or cells: HEK293
T1 sequence (P29274 whole entry): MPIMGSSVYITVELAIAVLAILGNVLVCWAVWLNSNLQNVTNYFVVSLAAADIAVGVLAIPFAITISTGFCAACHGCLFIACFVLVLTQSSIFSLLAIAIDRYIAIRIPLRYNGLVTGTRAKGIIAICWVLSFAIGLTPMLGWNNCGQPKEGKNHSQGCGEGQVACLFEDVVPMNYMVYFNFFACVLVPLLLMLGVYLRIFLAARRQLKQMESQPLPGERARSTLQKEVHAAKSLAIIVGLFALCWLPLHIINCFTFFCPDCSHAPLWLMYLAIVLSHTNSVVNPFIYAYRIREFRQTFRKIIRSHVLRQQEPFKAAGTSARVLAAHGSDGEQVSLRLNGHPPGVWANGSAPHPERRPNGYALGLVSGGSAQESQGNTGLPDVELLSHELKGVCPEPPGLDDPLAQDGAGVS
Method: (1) c-AMP Generating Action in Cell Expressing Adenosine A2a Receptor
The test was carried out as mentioned below with reference to the method disclosed in the reference (Klotz k. N. et al., Naunyn-Schmiedeberg's Arch. Pharmacol., (1998) 357, 1-9; Shryock J. C. et al., Molecular Pharmacology, (1998) 53, 886-893).
As to the cell, HEK293 cell expressing adenosine A2a receptor (Human) (PerkinElmer Life Sciences, Code No. RBHA2AC) was used.
As to the culture medium, Dulbecco's modified Eagles medium (DMEM) including 10% FBS (Fetal bovine serum) and 1 mM of sodium pyruvate was used.
The cell was placed on 96 well plate (1×10^5/well), and cultured overnight. After removing off the supernatant, to each well, 0.1 ml of DMEM (without FBS) containing 20 mM HEPES, 0.1 mM of IBMX (3-isobutyl-1-methylxanthine) and 2 unit/mL adenosine deaminase was added, and they were incubated at 37° C. for 30 minutes. To each well, 0.1 ml of the culture medium including the DMSO solution of the test compound in an appropriate concentration was added and they were incubated for additional 30 minutes. After removing off the supernatant, the cytolytic solution was added to quench the reaction. The amount of c-AMP in each well was measured by using the c-AMP enzyme immunoassay (EIA) system (Amersham Biosciences, Code No. RPN225).
The same assay was repeated using CGS-21680 (2-p-carboxyethyl)phenethylamino-5′-N-ethylcarboxamidoadenosine hydrochloride, (Sigma, code C141) as reference compound. The amount of resultant c-AMP in the medium, caused by 1 μM of reference compound, was defined to be 100%. A concentration of assayed compound in the medium, producing 50% c-AMP amounts, was calculated to be EC50 value.

[2] = test system: Intraocular Pressure in Rabbit; experiment: Measuring test for intraocular pressure in rabbit; format: in vivo, Female New Zealand white rabbits; settings: mean±standard error
Method: (3) Measuring Test for Intraocular Pressure in Rabbit
The test compounds were dissolved in 10 mM of phosphate buffer (pH 7.5) (hereinafter, referred to as “vehicle of ophthalmic preparation”), and they were instilled in a given concentration. In addition, the compounds insoluble in that concentration was used as a suspension. Female New Zealand white rabbits (KITAYAMA LABES Co., Ltd.) whose weights were 2.0-4.0 kg were used.
The measurement of the intraocular pressure was carried out using Pneumatonometer (Model 30 Classic, Mentor company) without anesthesia. In addition, before the measurement of the intraocular pressure, the surface anesthesia with 0.4% oxybuprocaine hydrochloride (“Benoxil” 0.4% ophthalmic solution, Santen Pharmaceutical Co., Ltd.) was carried out.
The animals whose intraocular pressure was stable before instillation were selected, and these animals were divided to every 4 animal in each one group, 50 μL of eye drops including each the test compound was administered to one-sided eye and vehicle was administered to contralateral eye as the control eye. The measurement of intraocular pressure was carried out before instillation and after 0.5, 1, 2, 3, 4 and 6 hours from instillation. The effect on the intraocular pressure was shown as the difference from pre-instillation (ΔIOP, mmHg, mean±standard error). The following Tables 14 and 15 show the results of Control Compounds A and B used as 1% suspensions which are the same as in the pharmacological test (1).
The animals were pretreated as mentioned above, and among them animals whose intraocular pressure was stable before instillation were selected, and these animals were divided to every 5 to 8 animal in each one group. Every two group was used for each of the test compounds. The test compound was administered unilaterally to the eye of the test group rabbit and the intraocular pressure was measured. The vehicle was administered unilaterally to the eye of the control group rabbit and the intraocular pressure was measured. As mentioned above, the measurement of intraocular pressure was carried out before instillation and after 0.5, 1, 2, 3, 4 and 6 hours from instillation, and the effect on the intraocular pressure was shown as the difference from pre-instillation (ΔIOP, mmHg, mean±standard error).

[3] = 0.03% ophthalmic solution, rabbit, instillation, 0.5 hr after instillation, difference from pre-instillation
[4] = 0.03% ophthalmic solution, rabbit, instillation, 1 hr after instillation, difference from pre-instillation
[5] = 0.03% ophthalmic solution, rabbit, instillation, 2 hr after instillation, difference from pre-instillation
[6] = 0.03% ophthalmic solution, rabbit, instillation, 3 hr after instillation, difference from pre-instillation
[7] = 0.03% ophthalmic solution, rabbit, instillation, 4 hr after instillation, difference from pre-instillation
[8] = 0.03% ophthalmic solution, rabbit, instillation, 6 hr after instillation, difference from pre-instillation

Compound	EC50 [1]	ΔIOP (mmHg) [2, 3]	ΔIOP (mmHg) [2, 4]	ΔIOP (mmHg) [2, 5]	ΔIOP (mmHg) [2, 6]	ΔIOP (mmHg) [2, 7]	ΔIOP (mmHg) [2, 8]	further results
CC(=O)Nc1ccc(-c2nc(SCc3cccc(C)n3)nc(N)c2C#N)cc1 [Example 2, N-{4-[6-amino-5-cyano-2-(6-methylpyridin-2-ylmethylsulfanyl)pyrimidin-4-yl]phenyl}acetamide]	11.9 nM							ΔIOP (mmHg) ([2]; 1% suspended ophthalmic preparation, test group, 0.5 hr): 1.1 ± 0.6 mmHg; ΔIOP (mmHg) ([2]; 1% suspended ophthalmic preparation, test group, 1 hr): −3.1 ± 0.6 mmHg; ΔIOP (mmHg) ([2]; 1% suspended ophthalmic preparation, test group, 2 hr): −4.2 ± 0.7 mmHg; ΔIOP (mmHg) ([2]; 1% suspended ophthalmic preparation, test group, 3 hr): −4.0 ± 0.9 mmHg; ΔIOP (mmHg) ([2]; 1% suspended ophthalmic preparation, test group, 4 hr): −2.0 ± 0.4 mmHg; ΔIOP (mmHg) ([2]; 1% suspended ophthalmic preparation, test group, 6 hr): 0.4 ± 0.9 mmHg
CC(=O)Nc1ccc(-c2nc(SCc3cccc(CN4CCOCC4)n3)nc(N)c2C#N)cc1 [Example 14, N-{4-[6-amino-5-cyano-2-(6-morpholin-4-ylmethylpyridin-2-ylmethylsulfanyl)pyrimidin-4-yl]phenyl}acetamide]	39.6 nM							ΔIOP (mmHg) ([2]; 0.3% suspended ophthalmic preparation, test group, 0.5 hr): −0.3 ± 1.2 mmHg; ΔIOP (mmHg) ([2]; 0.3% suspended ophthalmic preparation, test group, 1 hr): −3.9 ± 1.3 mmHg; ΔIOP (mmHg) ([2]; 0.3% suspended ophthalmic preparation, test group, 2 hr): −4.4 ± 1.0 mmHg; ΔIOP (mmHg) ([2]; 0.3% suspended ophthalmic preparation, test group, 3 hr): −4.8 ± 1.4 mmHg; ΔIOP (mmHg) ([2]; 0.3% suspended ophthalmic preparation, test group, 4 hr): −4.3 ± 1.0 mmHg; ΔIOP (mmHg) ([2]; 0.3% suspended ophthalmic preparation, test group, 6 hr): −1.0 ± 1.0 mmHg
CCC(=O)Nc1ccc(-c2nc(SCc3cccc(CCC(=O)N4CCN(C)CC4)n3)nc(N)c2C#N)cc1 [Example 57, N-[4-(6-amino-5-cyano-2-{6-[3-(4-methylpiperazin-1-yl)-3-oxopropyl]pyridin-2-ylmethylsulfanyl}pyrimidin-4-yl)phenyl]propionamide]	3.4 nM							
CCCC(=O)Nc1ccc(-c2nc(SCc3cccc(CCC(=O)N4CCN(C)CC4)n3)nc(N)c2C#N)cc1 [Example 58, N-[4-(6-amino-5-cyano-2-{6-[3-(4-methylpiperazin-1-yl)-3-oxopropyl]pyridin-2-ylmethylsulfanyl}pyrimidin-4-yl)phenyl]-butylamide]	38 nM							
CC(=O)Nc1ccc(-c2nc(SCc3cccc(CCC(=O)NCCN)n3)nc(N)c2C#N)cc1 [Example 60, 3-{6-[4-(4-acetylaminophenyl)-6-amino-5-cyanopyrimidin-2-ylsulfanylmethyl]pyridin-2-yl}-N-(2-aminoethyl)propionamide hydrochloride]	2.8 nM							
CC(=O)Nc1ccc(-c2nc(SCc3cccc(CCC(=O)NCCN(C)C)n3)nc(N)c2C#N)cc1.Cl [Example 61, 3-{6-[4-(4-acetylaminophenyl)-6-amino-5-cyanopyrimidin-2-ylsulfanylmethyl]pyridin-2-yl}-N-(2-dimethylaminoethyl)-propionamide hydrochloride]	3.4 nM	−0.5 ± 0.4 mmHg	−4.2 ± 0.6 mmHg	−4.5 ± 0.7 mmHg	−4.8 ± 0.7 mmHg	−4.4 ± 0.7 mmHg	−1.2 ± 0.8 mmHg	
CC(=O)Nc1ccc(-c2nc(SCc3cccc(CCC(=O)N(C)CC(C)N(C)C)n3)nc(N)c2C#N)cc1.Cl (stereo not shown) [Example 64, 3-{6-[4-(4-acetylaminophenyl)-6-amino-5-cyanopyrimidin-2-ylsulfanylmethyl]pyridin-2-yl}-N-(2-dimethylaminopropyl)-N-methylpropionamide hydrochloride]	4.3 nM	−2.7 ± 0.7 mmHg	−4.9 ± 0.5 mmHg	−3.8 ± 0.8 mmHg	−3.2 ± 0.9 mmHg	−4.0 ± 0.7 mmHg	−1.8 ± 0.4 mmHg	
CCN(CC)CCNC(=O)CCc1cccc(CSc2nc(N)c(C#N)c(-c3ccc(NC(C)=O)cc3)n2)n1.Cl [Example 66, 3-{6-[4-(4-acetylaminophenyl)-6-amino-5-cyanopyrimidin-2-ylsulfanylmethyl]pyridin-2-yl}-N-(2-diethylaminoethyl)propionamide hydrochloride salt]	5.2 nM	−1.3 ± 0.9 mmHg	−4.0 ± 0.6 mmHg	−5.5 ± 0.7 mmHg	−5.0 ± 0.5 mmHg	−3.7 ± 0.5 mmHg	−1.8 ± 0.5 mmHg	
CC(=O)Nc1ccc(-c2nc(SCc3cccc(CCC(=O)N(C)C4CCN(C)CC4)n3)nc(N)c2C#N)cc1.Cl [Example 67, 3-{6-[4-(4-acetylaminophenyl)-6-amino-5-cyanopyrimidin-2-ylsulfanylmethyl]pyridin-2-yl}-N-methyl-N-(1-methylpiperidin-4-yl)propionamide hydrochloride]	6.8 nM	−1.1 ± 1.0 mmHg	−5.3 ± 0.7 mmHg	−4.6 ± 0.7 mmHg	−4.6 ± 0.9 mmHg	−4.2 ± 0.7 mmHg	−2.0 ± 0.7 mmHg	

Now from value to compound, other results behind:

EC50 [1]	Compound	ΔIOP (mmHg) [2, 3]	ΔIOP (mmHg) [2, 4]	ΔIOP (mmHg) [2, 5]	ΔIOP (mmHg) [2, 6]	ΔIOP (mmHg) [2, 7]	ΔIOP (mmHg) [2, 8]	further results
7.5 nM	CCN(CC)C1CCN(C(=O)CCc2cccc(CSc3nc(N)c(C#N)c(-c4ccc(NC(C)=O)cc4)n3)n2)CC1 [Example 68, N-[4-(6-amino-5-cyano-2-{6-[3-(4-diethylaminopiperidin-1-yl)-3-oxopropyl]pyridin-2-yl-methylsulfanyl}pyrimidin-4-yl)phenyl]acetamide hydrochloride salt]							
8.8 nM	CC(=O)Nc1ccc(-c2nc(SCc3cccc(CCC(=O)N4CCCCC4CO)n3)nc(N)c2C#N)cc1 (stereo not shown) [Example 70, N-[4-(6-amino-5-cyano-2-{6-[3-(2-hydroxymethylpiperidin-1-yl)-3-oxopropyl]pyridin-2-ylmethylsulfanyl}pyrimidin-4-yl)phenyl]acetamide hydrochloride]							
2.5 nM	CC(=O)Nc1ccc(-c2nc(SCc3cccc(CCC(=O)N4CCNCC4)n3)nc(N)c2C#N)cc1 [Example 74, N-(4-{6-amino-5-cyano-2-[6-(3-oxo-3-piperazin-1-ylpropyl)pyridin-2-ylmethylsulfanyl]-pyrimidin-4-yl}phenyl)acetamide hydrochloride]							
8.2 nM	CCC(=O)CCc1cccc(CSc2nc(N)c(C#N)c(-c3ccc(NC(C)=O)cc3)n2)n1 [Example 82, N-(4-{6-amino-5-cyano-2-[6-(3-oxopentyl)pyridin-2-ylmethylsulfanyl]pyrimidin-4-yl}phenyl)acetamide]							
